In paper PMC9516332 (Frontiers in Oncology, 2022):
Where two headings read alike, the source gives them in different places.

Test system: 134 cancer cell lines
Assay: Cell viability assay (ATPlite, 72 hours), IC50 on cancer cell line panel

- IC50 (HEC-6, read-out: IC50 in cell proliferation assay, HEC-6 cell line (EGFR p.A289V)): 7.66 µM
- IC50 (Homo sapiens, 769-P, read-out: IC50 in cell proliferation assay, cell line 769-P): 14.3 µM
- IC50 (Homo sapiens, 786-0, read-out: IC50 in cell proliferation assay, cell line 786-O): > 31.6 µM
- IC50 (Homo sapiens, A 172, read-out: IC50 in cell proliferation assay, cell line A-172): 19.6 µM
- IC50 (Homo sapiens, A204, read-out: IC50 in cell proliferation assay, cell line A-204): 0.247 µM
- IC50 (Homo sapiens, A498, read-out: IC50 in cell proliferation assay, cell line A-498): 14.4 µM
- IC50 (Homo sapiens, A549, read-out: IC50 in cell proliferation assay, cell line A-549): 9.89 µM
- IC50 (Homo sapiens, A704, read-out: IC50 in cell proliferation assay, cell line A-704): 27 µM
- IC50 (Homo sapiens, A-375, read-out: IC50 in cell proliferation assay, cell line A-375 (BRAF p.V600E)): 14.9 µM
- IC50 (Homo sapiens, A-427, read-out: IC50 in cell proliferation assay, cell line A-427): 0.074 µM
- IC50 (Homo sapiens, ACHN, read-out: IC50 in cell proliferation assay, cell line ACHN): 9.68 µM
- IC50 (Homo sapiens, AN3-CA, read-out: IC50 in cell proliferation assay, cell line AN3-CA (FGFR2 p.N549K)): 0.697 µM
- IC50 (Homo sapiens, ASPC1, read-out: IC50 in cell proliferation assay, cell line AsPC-1): 8.97 µM
- IC50 (Homo sapiens, AU565, read-out: IC50 in cell proliferation assay, cell line AU565 (ERBB2 amplification)): 1.56 µM
- IC50 (Homo sapiens, BT-20, read-out: IC50 in cell proliferation assay, cell line BT-20): 3.55 µM
- IC50 (Homo sapiens, BT-474, read-out: IC50 in cell proliferation assay, cell line BT-474 (ERBB2 amplification)): 3.2 µM
- IC50 (Homo sapiens, BT-549, read-out: IC50 in cell proliferation assay, cell line BT-549): 16.6 µM
- IC50 (Homo sapiens, BXPC-3, read-out: IC50 in cell proliferation assay, cell line BxPC-3): 5.88 µM
- IC50 (Homo sapiens, C-33-A, read-out: IC50 in cell proliferation assay, cell line C-33 A): 25.1 µM
- IC50 (Homo sapiens, CAL-27, read-out: IC50 in cell proliferation assay, cell line CAL-27): 2.31 µM
- IC50 (Homo sapiens, CCF-STTG1, read-out: IC50 in cell proliferation assay, cell line CCF-STTG1): > 31.6 µM
- IC50 (Homo sapiens, CCRF-CEM, read-out: IC50 in cell proliferation assay, cell line CCRF-CEM): 4.28 µM
- IC50 (Homo sapiens, COLO 205, read-out: IC50 in cell proliferation assay, cell line COLO 205 (BRAF p.V600E)): 14.1 µM
- IC50 (Homo sapiens, COLO-829, read-out: IC50 in cell proliferation assay, cell line COLO 829 (BRAF p.V600E)): > 31.6 µM
- IC50 (Homo sapiens, DLD-1, read-out: IC50 in cell proliferation assay, cell line DLD-1): 0.676 µM
- IC50 (Homo sapiens, DU-4475, read-out: IC50 in cell proliferation assay, cell line DU4475 (BRAF p.V600E)): 0.628 µM
- IC50 (Homo sapiens, Daoy, read-out: IC50 in cell proliferation assay, cell line Daoy): 9.36 µM
- IC50 (Homo sapiens, DoTc2-4510, read-out: IC50 in cell proliferation assay, cell line DoTc2 4510): 1.3 µM
- IC50 (Homo sapiens, EOL1, read-out: IC50 in cell proliferation assay, cell line EoL-1 (FIP1L1-PDGFRA)): 0.335 µM
- IC50 (Homo sapiens, FaDu, read-out: IC50 in cell proliferation assay, cell line FaDu): 1.71 µM
- IC50 (Homo sapiens, G-361, read-out: IC50 in cell proliferation assay, cell line G-361 (BRAF p.V600E)): 16.6 µM
- IC50 (Homo sapiens, HCC827, read-out: IC50 in cell proliferation assay, cell line HCC827 (EGFR exon19del)): 5.4 µM
- IC50 (Homo sapiens, HCC4006, read-out: IC50 in cell proliferation assay, cell line HCC4006 (EGFR exon19del)): 4.56 µM
- IC50 (Homo sapiens, HCT-15, read-out: IC50 in cell proliferation assay, cell line HCT 15): 0.838 µM
- IC50 (Homo sapiens, HCT-116, read-out: IC50 in cell proliferation assay, cell line HCT 116): 6.31 µM
- IC50 (Homo sapiens, HEC-1, read-out: IC50 in cell proliferation assay, HEC-1 cell line): 5.84 µM
- IC50 (Homo sapiens, HEC-1B, read-out: IC50 in cell proliferation assay, HEC-1-B cell line (EGFR p.A864V)): 0.943 µM
- IC50 (Homo sapiens, HL-60, read-out: IC50 in cell proliferation assay, HL-60 cell line): 1.69 µM
- IC50 (Homo sapiens, HT, read-out: IC50 in cell proliferation assay, HT cell line): 14.3 µM
- IC50 (Homo sapiens, HT-1080, read-out: IC50 in cell proliferation assay, HT-1080 cell line): 0.314 µM
- IC50 (Homo sapiens, Hs746T, read-out: IC50 in cell proliferation assay, Hs 746.T cell line (MET exon14skip + amplification)): 5.75 µM
- IC50 (Homo sapiens, Hs-578T, read-out: IC50 in cell proliferation assay, Hs 578T cell line): 8.51 µM
- IC50 (Homo sapiens, HuTu80, read-out: IC50 in cell proliferation assay, HuTu 80 cell line): 1.09 µM
- IC50 (Homo sapiens, J82, read-out: IC50 in cell proliferation assay, J82 cell line): > 31.6 µM
- IC50 (Homo sapiens, Jurkat E6.1, read-out: IC50 in cell proliferation assay, Jurkat E6.1 cell line): 12.9 µM
- IC50 (Homo sapiens, K562, read-out: IC50 in cell proliferation assay, K-562 cell line): > 31.6 µM
- IC50 (Homo sapiens, KATO III, read-out: IC50 in cell proliferation assay, KATO III cell line (FGFR2 amplification)): 2.79 µM
- IC50 (Homo sapiens, KG-1, read-out: IC50 in cell proliferation assay, KG-1 cell line (FGFR1OP2-FGFR1)): 27.7 µM
- IC50 (Homo sapiens, KLE, read-out: IC50 in cell proliferation assay, KLE cell line): 5.79 µM
- IC50 (Homo sapiens, KMS-11, read-out: IC50 in cell proliferation assay, KMS-11 cell line (FGFR3 p.Y373C)): 1.53 µM
- IC50 (Homo sapiens, KU812, read-out: IC50 in cell proliferation assay, Ku812 cell line): 0.075 µM
- IC50 (Homo sapiens, Kasumi 1, read-out: IC50 in cell proliferation assay, Kasumi-1 cell line (KIT p.N822K)): 1.9 µM
- IC50 (Homo sapiens, LC-2-ad, read-out: IC50 in cell proliferation assay, LC-2/ad cell line (CCDC6-RET)): 4.5 µM
- IC50 (Homo sapiens, LNCaP-Clone-FGC, read-out: IC50 in cell proliferation assay, LNCaP clone FGC cell line): > 31.6 µM
- IC50 (Homo sapiens, LS174T, read-out: IC50 in cell proliferation assay, LS174T cell line): 1.9 µM
- IC50 (Homo sapiens, LS-411N, read-out: IC50 in cell proliferation assay, LS411N cell line (BRAF p.V600E)): 17.4 µM
- IC50 (Homo sapiens, LoVo, read-out: IC50 in cell proliferation assay, LoVo cell line): 20.5 µM
- IC50 (Homo sapiens, MCF7, read-out: IC50 in cell proliferation assay, MCF-7 cell line): 2.79 µM
- IC50 (Homo sapiens, MDA-MB-231, read-out: IC50 in cell proliferation assay, MDA-MB-231 cell line): > 31.6 µM
- IC50 (Homo sapiens, MDA-MB-453, read-out: IC50 in cell proliferation assay, MDA-MB-453 cell line): 6.03 µM
- IC50 (Homo sapiens, MDA-MB-468, read-out: IC50 in cell proliferation assay, MDA-MB-468 cell line): 9.8 µM
- IC50 (Homo sapiens, MG-63, read-out: IC50 in cell proliferation assay, MG-63 cell line): 3.87 µM
- IC50 (Homo sapiens, MIA PaCa-2, read-out: IC50 in cell proliferation assay, MIA PaCa-2 cell line): 10.7 µM
- IC50 (Homo sapiens, MKN-45, read-out: IC50 in cell proliferation assay, MKN45 cell line (MET amplification)): 1.23 µM
- IC50 (Homo sapiens, MOLM-13, read-out: IC50 in cell proliferation assay, MOLM-13 cell line (FLT3 ITD)): 3.48 µM
- IC50 (Homo sapiens, MOLT-4, read-out: IC50 in cell proliferation assay, MOLT-4 cell line): 0.701 µM
- IC50 (Homo sapiens, MV4-11, read-out: IC50 in cell proliferation assay, MV4-11 cell line (FLT3 ITD)): 10.5 µM
SMILES: Cc1nc(NC(=O)N2CCC[C@H]2C(N)=O)sc1-c1ccnc(C(C)(C)C(F)(F)F)c1 [alpelisib]
